Here are results for twelve compounds from the supplement of paper PMC12592484.

What all share (assay): drug sensitivity score (DSS2, normalised partial AUC of dose-response, 72 h CellTiter-Glo viability) (DSS (dimensionless)); higher = more sensitive (stronger growth inhibition / cytotoxicity); extreme values may be limits of the assay
In test [1] the test system is 22Rv1. An outline of the steps:
(§1)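 Low-passage primary prostate cancer-associated fibroblasts, PF179T, WPMY-1, LNCaP and 22Rv1 cells were seeded into 384-well plates carrying pre-dispensed compounds at five doses covering a 10,000-fold range. After 72 h, viability was read by CellTiter-Glo 2.0 luminescence. Responses were scaled to vehicle and positive-control wells. The drug sensitivity score (DSS2) is a partial area under the fitted logistic dose–response curve divided by the log of its upper asymptote, computed in BREEZE; higher means more sensitive.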

In test [2] the test system is CAF#6 (primary prostate cancer-associated fibroblasts of iCAF-like type). An outline of the steps: as §1
Test [3] relates to CAF#5 (primary prostate cancer-associated fibroblasts of myCAF-like type). A digest of the protocol:
as §1

For test [4], the system named is WPMY-1. An outline of the steps: as §1
The test system of test [5] is CAF#3 (primary prostate cancer-associated fibroblasts of myCAF-like type). An outline of the steps: as §1
Test [6] deals with CAF#7 (primary prostate cancer-associated fibroblasts of myCAF-like type). An outline of the steps:
as §1

Test [7] relates to CAF#1 (primary prostate cancer-associated fibroblasts of myCAF-like type). An outline of the steps:
as §1

Test [8] has as its system PF179T. A digest of the protocol: as §1
Test [9] relates to LNCAP. A digest of the protocol:
as §1

Test [10] relates to CAF#4 (primary prostate cancer-associated fibroblasts of iCAF-like type). An outline of the steps:
as §1

In test [11] the test system is CAF#2 (primary prostate cancer-associated fibroblasts of iCAF-like type). A digest of the protocol:
as §1

In the case of `Cn1cnc2c(F)c(Nc3ccc(Br)cc3Cl)c(C(=O)NOCCO)cc21` [Selumetinib] (tested concentration range 1-10000 nM), the drug sensitivity score in test [1] was 14.4; in test [2], 1.1; in [3], 1.6; in test [4], 4.3; in test [5], 0; in test [6], 2.6. In addition, the drug sensitivity score was determined as 1.2 in test [7]; 2.5 in test [8]; 0 in [9]; 2.5 in [10]; 4.5 in [11].

In the case of `Nc1nc2cc(-c3ccc4ncc(C(=O)N5CCOCC5)n4c3)ccc2o1` [Serabelisib] (tested concentration range 1-10000 nM), the drug sensitivity score in test [1] came out at 5.2; in [2], 4.5; in [3], 5.7; in test [4], 1.2; in test [5], 4.2; in test [6], 3.4. For the same compound, the drug sensitivity score in test [7] came out at 3.2; in test [8], 2.8; in test [9], 2.3; in [10], 2.1; in [11], 4.3.

Consider `O=C(O)c1ccc2c(c1)nc(Nc1cccc(Cl)c1)c1ccncc12` [Silmitasertib] (tested concentration range 1-10000 nM), for which the drug sensitivity score in [1] was 6; in test [2], 0.6; in test [3], 4.6; in [4] it was 5.1; in test [5] it was 0.7; in [6], 1.5. Also, the drug sensitivity score in test [7] turned out to be 5.4; in test [8], 2.5; in test [9], 3.9; in test [10] it was 2.2; in [11], 4.

Turning to `CO[C@H]1C[C@@H]2CC[C@@H](C)[C@@](O)(O2)C(=O)C(=O)N2CCCC[C@H]2C(=O)O[C@H]([C@H](C)C[C@@H]2CC[C@@H](O)[C@H](OC)C2)CC(=O)[C@H](C)/C=C(\C)[C@@H](O)[C@@H](OC)C(=O)[C@H](C)C[C@H](C)/C=C/C=C/C=C/1C` [Sirolimus] (tested concentration range 0-100 nM), the drug sensitivity score worked out at 9.3 in test [1]; 3.4 in [2]; 7.4 in test [3]; 4 in test [4]; 2.2 in test [5]; 3.7 in test [6]. Besides, the drug sensitivity score in test [7] came out at 6.5; in [8] it was 5.6; in test [9] it was 2.5; in test [10] it was 4.9; in [11] it was 6.8.

Consider `COCCNCc1ccc(-c2cc3nccc(Oc4ccc(NC(=O)C5(C(=O)Nc6ccc(F)cc6)CC5)cc4F)c3s2)nc1` [Sitravatinib] (tested concentration range 0.2-2500 nM), for which the drug sensitivity score in [1] amounted to 4.7; in [2], 3.4; in test [3], 6.6; in test [4], 5.9; in test [5], 4.5; in test [6], 5.7. Also, the drug sensitivity score in test [7] amounted to 5.5; in test [8], 6.7; in [9] it was 2.1; in [10], 6.6; in test [11], 9.7.

With `Cc1c(C(=O)Nc2ccc(N3C[C@@H](C)O[C@@H](C)C3)nc2)cccc1-c1ccc(OC(F)(F)F)cc1` [Sonidegib] (tested concentration range 1-10000 nM), the drug sensitivity score came to 2.2 in [1]; 0 in [2]; 1.5 in test [3]; 0 in [4]; 0 in test [5]; 0 in test [6]. Moreover, the drug sensitivity score in test [7] was determined as 0; in [8], 0; in test [9], 4.9; in [10] it was 3.2; in [11], 1.7.

For `CNC(=O)c1cc(Oc2ccc(NC(=O)Nc3ccc(Cl)c(C(F)(F)F)c3)cc2)ccn1` [Sorafenib] (tested concentration range 0.1-1000 nM), the drug sensitivity score was determined as 0 in test [1]; 0 in [2]; 0 in test [3]; 0 in [4]; 2.6 in [5]; 0 in [6]. Also, the drug sensitivity score in test [7] is 0; in [8] it was 0; in [9] it was 0; in test [10] it was 1.2; in test [11], 0.

As for `CN1CCN(c2nc(C3=C(c4c[nH]c5ccccc45)C(=O)NC3=O)c3ccccc3n2)CC1` [Sotrastaurin] (tested concentration range 1-10000 nM), the drug sensitivity score came out at 3.6 in test [1]; 0 in test [2]; 0 in [3]; 1.5 in test [4]; 0 in test [5]; 0 in test [6]. In addition, the drug sensitivity score was 0 in [7]; 0 in test [8]; 3.5 in test [9]; 0 in test [10]; 2.2 in test [11].

Regarding `CC(C)n1cnc2c(NCCc3ccc(O)cc3)nc(-c3csc4ccccc34)nc21` [StemRegenin 1] (tested concentration range 1-10000 nM), the drug sensitivity score came out at 2.5 in [1]; 0.6 in [2]; 1.7 in [3]; 2.1 in test [4]; 3.5 in test [5]; 0 in test [6]. Also, the drug sensitivity score was determined as 1.5 in test [7]; 0 in [8]; 5 in test [9]; 2.6 in test [10]; 1.7 in test [11].

Take `CCN(CC)CCNC(=O)c1c(C)[nH]c(/C=C2\C(=O)Nc3ccc(F)cc32)c1C` [Sunitinib] (tested concentration range 0.1-1000 nM): the drug sensitivity score in test [1] is 0.8; in test [2] it was 0; in test [3], 0.3; in test [4] it was 0.5; in test [5] it was 2.8; in test [6], 0. Besides, the drug sensitivity score stood at 0 in test [7]; 0 in test [8]; 0 in [9]; 0 in test [10]; 2.5 in test [11].

On to `C[C@@H](NC(=O)c1ncnc(N)c1Cl)c1ncc(C(=O)Nc2cc(C(F)(F)F)c(Cl)cn2)s1` [TAK-580] (tested concentration range 1-10000 nM), for which the drug sensitivity score in [1] worked out at 0; in test [2], 0; in [3], 0; in test [4], 0.5; in [5], 0.5; in test [6] it was 0.3. The drug sensitivity score is 0 in test [7]; 0 in test [8]; 0.2 in test [9]; 2.3 in [10]; 0 in test [11].

For the compound `Cc1cccc(-c2[nH]c(CNc3ccccc3F)nc2-c2ccc3ncnn3c2)n1` [TEW-7197] (tested concentration range 0.2-2500 nM), the drug sensitivity score was 0 in [1]; 0 in test [2]; 0.3 in test [3]; 0 in [4]; 0.5 in [5]; 0 in [6]. Besides, the drug sensitivity score is 0.5 in test [7]; 0 in test [8]; 0 in [9]; 0 in test [10]; 0 in test [11].
